Test results taken from patent publication US6140336A, “Spiro[2H-1-benzopyran-2,4'-piperidine]-4(3H)-one derivatives, acid addition salts thereof and pharmaceutical compositions containing them” (Richter Gedeon Vegyeszeti Gyar Rt., priority 1996, dated 2000).
Structures can show the parent of a compound that is named as a salt. Where two headings read alike, the source gives them in different places.

How the values were obtained:
[1] = Diazepam (DIA) induced anterograde amnesia, passive avoidance test; type: in vivo, NMRI mice; conditions: for protection against the amnesic effect of diazepam, lower versus higher dose: 0.1 mg/kg and 10 mg/kg p.o.; for inhibition in vivo at 0.1 mg/kg / inhibition in vivo at 10 mg/kg: Mus musculus, po, 1 h, read-out: Prevention %; for significantly antagonized the amnesic effect of diazepam (percentage): Table 1, p.o.; for antiamnesic effect (overall): overall conclusion from the amnesia tests
From the text: (§1) The biological activity of the compounds of formulas (I) and (Ia) was studied by using passive avoidance test. This test is one of the most widely used animal experimental model for investigating the effects of substances on the cognitive functions (learning and memory processes). This is based on inhibition of the genetically determined behavior of rodents (mice and rats) that they prefer dark space to light one. A single electric shock given in the dark box is employed as a memory trace, the retention and retrieval of which can be controlled after a shorter or longer period.
The passive avoidance test was carried out on NMRI mice with a body weight of 25-28 g. During the learning, preselected animals (mice entering into a dark space from an illuminated space within 30 s) were placed into an illuminated space. After entering into the dark space, the animal received within 30 s onto his paw an electric shock (1 mA for 3 s) causing an unpleasant sensation. The time of entry into the dark space (latency period) was measured. During the check, after 24 hours, the animals were again put back to the illuminated space and the time elapsed until entry into the dark space (retention time) was measured (limit time=300 s). The animals were intraperitoneally (i.p.) treated with 3 mg/kg of diazepam (chemically, 7-chloro-1,3-dihydro-1-methyl-5-phenyl-2H-1,4-benzodiazepin-2-one) 30 minutes before learning in order to induce anterograde amnesia. The compounds were orally (p.o.) administered in doses of 0.1 or 10 mg/kg, respectively one hour before the learning. The protective effect was calculated percentage value (P%) by using the following formula: [formula]
(§2) In the above formula, T means the measured retention time of animals treated as shown in the index or the measured retention time of untreated animals, respectively.

[2] = type: in vivo, rats; conditions: for ED50: i.v.
Description: These experiments were carried out on rats (with a body weight of 180-200 g) anaesthetized by urethane (1.25 g/kg i.p.) in such a way that 50 μg/kg of aconitine [chemically acetyl benzoyl aconine] was injected to the tail vein then, the arrhythmic disturbances were observed on ERG II lead after 5 minutes [J. Med. Exp. 10, 93 (1964)].
The compounds to be tested for antiarrhythmic effect were intravenously (i.v.) administered 2 minutes, or orally one hour before aconitine.
The aconitine arrhythmia was evaluated in such a manner that the severity of arrhythmia was characterized by an increasing number and, after average calculation both in the control as well as in the tested group, the average of treated group was expressed as percentage of the control. The arrhythmia was characterized by the following scores: […]

[3] = Electroshock (ECS) induced retrograde amnesia, passive avoidance test; type: in vivo, NMRI mice; conditions: for Prevention %: 2 hours after learning
From the text: as §1
In this test, the retrograde amnesia was induced on NMRI mice having a body weight of 24-26 g by using an auricular electroshock treatment of 20 mA for 0.2 s at one hour following the learning. The compounds to be tested were administered 2 hours after learning. The protective effect was calculated as percentage value (p%D) by using the following formula: [formula]
P%=Ttreated+ECS -Tplacebo+ECS /Tplacebo -Tplacebo+ECS
as §2

[4] = Normobaric hypoxia-induced memory deficiency model on rats; type: in vivo; conditions: 10 mg/kg oral
Description: (§3) Compound 4610351 has been investigated in detail both under in vitro and in vivo conditions. This compound evened 36% protection in an oral dose of 10 mg/kg in the normobaric hypoxia-induced memory deficiency model on rats; this surpassed the protective effect of 21% provided by 10 mg/kg oral dose of vinpocetine. […] On the basis of these investigations, compounds of formulas (I) and (Ia) can be utilized for the treatment of diseases and dementias accompanied by the impairment of cognitive processes (learning, memory), such as multiinfarct and Alzeimer type dementias, states following stroke, ischaemic injuries, sequels of trauma of the central nervous system, parkinsonism, Huntington's chorea or multiple sclerosis. The therapeutical doses of compounds of formulas (I) and (Ia) can range between 0.1 and 40 mg/kg of body weight given orally, daily once or several times.

[5] = Stability of hydrogen maleate salt versus free base; type: physicochemical
[6] = tested on: neuronal calcium uptake (veratrine-induced); assay: Veratrine-induced 45Ca uptake by synaptosome preparation; type: biochemical
Description: as §3

[7] = tested on: neuronal calcium uptake (K^+ -induced); assay: K+ -induced 45Ca uptake by synaptosome preparation; type: biochemical
Description: as §3

[8] = 0.1 mg/kg p.o., one hour before learning, diazepam 3 mg/kg i.p., * = p < 0.05 vs diazepam control
[9] = 10 mg/kg p.o., one hour before learning, diazepam 3 mg/kg i.p., * = p < 0.05 vs diazepam control
[10] = 30 mg/kg p.o., one hour before aconitine
[11] = 10 mg/kg p.o., * marks significance

Row | SMILES | inhibition in vivo at 0.1 mg/kg [1, 8] | inhibition in vivo at 10 mg/kg [1, 9] | significantly antagonized the amnesic effect of diazepam (percentage) [1] | antiamnesic effect (overall) [1] | Inhibition (%) ([2]; 10 mg/kg i.v.) | Inhibition (%) ([2]; 30 mg/kg i.v.) | Inhibition (%) [2, 10] | also measured
1 | CC(C)(C)c1ccc(CN2CCC3(CC2)CC(=O)c2ccccc2O3)cc1 [Compound 4611266, 1'-(4-tert-butylbenzyl)-spiro[2H-1-benzopyran-2,4'-piperidine]-4(3H)-one] | 159% | 105% | 105-176% | significant antiamnesic effect | 21% | 3% | 0% | protection against the amnesic effect of diazepam, lower versus higher dose [1]: nearly the same protection
2 | O=C1CC2(CCN(Cc3ccc([N+](=O)[O-])cc3)CC2)Oc2ccccc21 [Compound 4610350] | 170% | 29% | 105-176% | significant antiamnesic effect | – | – | – | antiamnesic action in lower doses ([1]; 0.1 mg/kg p.o.): showed an antiamnesic action; antiamnesic action in higher doses ([1]; 10 mg/kg p.o.): inactive; Prevention % ([3]; 1 mg/kg p.o.): 0%; Prevention % [3, 11]: 8%
3 | CCN1C[C@H]2CN(C)C[C@@H](C1)C2OC(=O)c1ccc(Cl)cc1 (stereo partly drawn) [Bisaramil, 3-methyl-7-ethyl-9α-(4-chlorobenzoyloxy)-3,7-diazabicyclo[3.3.1]nonane hydrochloride] | – | – | – | – | – | – | – | Inhibition (%) ([2]; 0.3 mg/kg i.v.): 20%; Inhibition (%) ([2]; 0.5 mg/kg i.v.): 48%; Inhibition (%) ([2]; 1.0 mg/kg i.v.): 91%; ED50 [2]: 0.49 mg/kg
4 | O=C1CC2(CCN(Cc3ccccc3)CC2)Oc2ccccc21 [Compound 4600592, 1'-Benzylspiro[2H-1-benzopyran-2,4'-piperidine]-4(3H)-one] | 144% | 92% | 105-176% | – | 3% | 19% | 0% | Prevention % ([3]; 1 mg/kg p.o.): 48%; Prevention % [3, 11]: 44%; protection in ECS-induced retrograde amnesia ([3]; mouse, in vivo): No considerable protection
5 | CCOC(=O)C1=C[C@]2(CC)CCCN3CCc4c(n1c1ccccc41)[C@@H]32 [Vinpocetine, ethyl apovincaminate, reference compound] | 0% | 123% | – | – | – | – | – | protection, normobaric hypoxia-induced memory deficiency [4]: 21%
6 | NC(=O)[C@@H]1CCCN1C(=O)[C@H](Cc1c[nH]cn1)NC(=O)[C@@H]1CCC(=O)N1 [TRH, 5-oxo-L-prolyl-L-histidyl-L-proline amide, reference compound] | – | – | – | – | – | – | – | Prevention % ([3]; 1 mg/kg i.p.): 77%; Prevention % ([3]; 10 mg/kg i.p.): 35%
7 | O=C1CC2(CC[N+](Cc3ccc([N+](=O)[O-])cc3)(Cc3ccc([N+](=O)[O-])cc3)CC2)Oc2ccccc21 [Compound 4611265] | – | – | 105-176% | significant antiamnesic effect | 21% | 10% | 0% | protection against the amnesic effect of diazepam, lower versus higher dose [1]: nearly the same protection; inhibition in vivo at 0.1 mg/kg [1]: 86%; inhibition in vivo at 10 mg/kg [1]: 134%
8 | O=C1CC2(CCN(Cc3ccc(F)cc3)CC2)Oc2ccccc21 [Compound 4610282] | 131% | 24% | 105-176% | significant antiamnesic effect | – | – | – | protection in ECS-induced retrograde amnesia ([3]; 0.1 mg/kg (as printed in text)): 77%; Prevention % ([3]; 1 mg/kg p.o.): 77%; Prevention % [3, 11]: 29%
9 | C=C[C@H]1C[N@@]2CC[C@H]1C[C@@H]2[C@@H](O)c1ccnc2ccc(OC)cc12 [Quinidine, (S)-(6-methoxy-4-quinolinyl)-[(2R.4S.5R)-5-vinyl-2-quinuclidinyl]methanol] | – | – | – | – | 55% | 83% | – | Inhibition (%) ([2]; 0.3 mg/kg i.v.): 34%; ED50 [2]: 6.66 mg/kg
10 | O=C1CC2(CC[N+](Cc3ccccc3)(Cc3ccccc3)CC2)Oc2ccccc21 [Compound 4611267, 1',1'-dibenzyl-spiro[2H-4(3H)-oxo-1-benzopyran-2,4'-piperidinium]hydrochloride] | 47% | 67% | – | – | 0% | 29% | 0% | –
11 | O=C1CC2(CCN(Cc3ccc(Br)cc3)CC2)Oc2ccccc21 [Compound 4611109] | 92% | 0% | – | – | – | – | – | antiamnesic action in lower doses ([1]; 0.1 mg/kg p.o.): showed an antiamnesic action; antiamnesic action in higher doses ([1]; 10 mg/kg p.o.): inactive
12 | Cc1cccc(C)c1OCC(C)N (stereo not shown) [Mexiletine, 1-methyl-2-(2,6-xylyloxy)ethylamine] | – | – | – | – | 62% | – | – | Inhibition (%) ([2]; 1.0 mg/kg i.v.): 29%; Inhibition (%) ([2]; 3.0 mg/kg i.v.): 68%; ED50 [2]: 2.51 mg/kg
13 | CCCCc1oc2ccccc2c1C(=O)c1cc(I)c(OCCN(CC)CC)c(I)c1 [Amiodarone] | – | – | – | – | 70% | – | – | Inhibition (%) ([2]; 3.0 mg/kg i.v.): 13%; Inhibition (%) ([2]; 5.0 mg/kg i.v.): 29%; ED50 [2]: 7.04 mg/kg
14 | O=C1CC2(CCN(Cc3ccccc3)CC2)Oc2ccccc21 | – | – | – | – | – | – | – | stability over the free base form [5]: higher stability
15 | O=C1CC2(CCN(Cc3ccc(Cl)cc3)CC2)Oc2ccccc21 [Compound 4610351] | 78% | 176% | 105-176% | significant antiamnesic effect | 16% | 16% | 5% | IC50 [6]: 4.5 µM; protection, normobaric hypoxia-induced memory deficiency [4]: 36%; Prevention % ([3]; 1 mg/kg p.o.): 81%; Prevention % [3, 11]: 108%; reversal of ECS-caused amnesia ([3]; both doses): could significantly reverse the ECS-caused amnesia in both doses; reversal of ECS-caused amnesia ([3]; higher dose): 108%; IC50 [7]: 45.6 µM
